Source: patent US9545384B2, “Nanoparticles comprising drug, a non-ionizable cellulosic polymer and tocopheryl polyethylene glocol succinate” (Bend Research, Inc., priority 2007, dated 2017)
Converted amounts (≈) assume the structure as drawn.

Tests used:
[1] = Log P; assay type: physicochemical; conditions: octanol/water
Source text: The first property of hydrophobic drugs is that they are extremely hydrophobic. Log P, defined as the base 10 logarithm of the ratio of the drug solubility in octanol to the drug solubility in water, is a widely accepted measure of hydrophobicity. By “extremely hydrophobic” is meant that the Log P value of the drug is at least 4.0, preferably at least 4.5, and most preferably at least 5.0. Log P may be measured experimentally or calculated using methods known in the art. When using a calculated value for Log P, the highest value calculated using any generally accepted method for calculating Log P is used. Calculated Log P values are often referred to by the calculation method, such as C log P, A log P, and M log P. The Log P may also be estimated using fragmentation methods, such as Crippen's fragmentation method (27 J. Chem. Inf. Comput. Sci. 21 (1987)); Viswanadhan's fragmentation method (29 J. Chem. Inf. Comput. Sci. 163 (1989)); or Broto's fragmentation method (19 Eur. J. Med. Chem.-Chim. Theor. 71 (1984). Preferably the Log P value is calculated by using the average value estimated using Crippen's, Viswanadhan's, and Broto's fragmentation methods.

[2] = Solubility of drug in water; assay type: physicochemical
[3] = Solubility of drug in model fasted duodenal (MFD) solution; assay type: physicochemical; conditions: fassgf or other biorelevant
[4] = for Observations: pH 6.5
Method: The polymer is a poorly aqueous soluble non-ionizable cellulosic polymer. […] An appropriate PBS solution is an aqueous solution comprising 20 mM sodium phosphate (Na2HPO4), 47 mM potassium phosphate (KH2PO4), 87 mM NaCl, and 0.2 mM KCl, adjusted to pH 6.5 with NaOH. A test to determine whether the polymer is insoluble may be performed as follows. The polymer is initially present in bulk powder form with average particle sizes of greater than about 1 micron. The polymer alone is administered at a concentration of 0.2 mg/mL to the PBS solution and stirred for approximately 1 hour at room temperature. Next, a nylon 0.45 μm filter is weighed, and the polymer solution is filtered. The filter is dried overnight at 40° C., and weighed the following morning. The amount of polymer dissolved is calculated from the amount of polymer added to the PBS solution minus the amount of polymer remaining on the filter (mg). […] These polymers were evaluated using the following procedure to determine their aqueous solubility. First, 0.2 mg/mL of the polymer is added to a PBS solution consisting of 20 mM Na2HPO4, 47 mM KH2PO4, 87 mM NaCl, and 0.2 mM KCl, adjusted to pH 6.5 with NaOH. The polymer is stirred in the PBS solution for approximately 1 hour at room temperature. Next, the polymer solution is filtered through a nylon 0.45 μm filter that had been weighed dry prior to filtration. The filter is dried overnight at 40° C., and weighed the following morning. The amount of soluble polymer is calculated from amount of polymer added to form the polymer solution minus the amount of polymer remaining on the filter.

Row | Compound | solubility [2] | solubility [3] | Soluble at pH 6.5 [4] | Observations [4] | other results
1 | Cc1onc(-c2ccccc2)c1-c1ccc(S(N)(=O)=O)cc1 [Drug 1, 4-(5-methyl-3-phenyl-4-isoxazolyl)benzenesulfonamide] | ~10 µg/mL (≈ 31.8 µM) |  |  |  | logP [1]: ~3
2 | Cc1ccc(-c2cc(C(F)(F)F)nn2-c2ccc(S(N)(=O)=O)cc2)cc1 [Drug 3, 4-[5-(4-methylphenyl)-3-(trifluoromethyl)-1H-pyrazol-1-yl]benzenesulfonamide, reference compound] |  | ~40 µg/mL (≈ 105 µM) |  |  | 
3 | Cellulose Acetate |  |  | 0.03 mg/mL | Fine particle | 
4 | Ethylcellulose |  |  | <0.001 mg/mL | Fine particle | 

Further lines, with some results ahead:

Row | solubility [2] | solubility [3] | Soluble at pH 6.5 [4] | Observations [4] | Compound | other results
5 |  | ~11 µg/mL (≈ 18.4 µM) |  |  | CC[C@@H]1C[C@H](N(Cc2cc(C(F)(F)F)cc(C(F)(F)F)c2)C(C)=O)c2cc(C(F)(F)F)ccc2N1C(=O)OC(C)C [Drug 2, [2R,4S]-4-[acetyl-(3,5-bis-trifluoromethyl-benzyl)-amino]-2-ethyl-6-trifluoromethyl-3,4-dihydro-2H-quinoline-1-carboxylic acid isopropyl ester] | 
6 | < 0.1 µg/mL |  |  |  | CCOC(=O)N1c2ccc(C(F)(F)F)cc2[C@@H](N(Cc2cc(C(F)(F)F)cc(C(F)(F)F)c2)C(=O)OC)C[C@H]1CC [Torcetrapib, [2R,4S]4-[(3,5-bis-trifluoromethyl-benzyl)-methoxycarbonyl-amino]-2-ethyl-6-trifluoromethyl-3,4-dihydro-2H-quinoline-1-carboxylic acid ethyl ester] | 
